Assay results as given in patent US20250281474A1, “PHARMACEUTICAL COMPOSITION FOR TREATING COGNITIVE DECLINE OR FOR TREATING OVERWEIGHTNESS OR OBESITY” (University of the Ryukyus, priority 2021, published 2025).
Read-outs that look alike come from different tables or passages of the source.

Experiments:
NMDA receptor = test: Ca2+-dependent inactivation of the NMDA receptor, Ca2+ imaging of brain slices; assay type: cell-based, mouse; settings: brain slices of mice fed HFD 2 weeks; 3 μM, 60 min; n=3
[1] = Ca2+ indicator; cited from earlier work
CP-AMPAR = test: Ca2+ imaging of hippocampal brain slices, AMPA+CTZ application, ob/ob mice; assay type: cell-based, mouse
AMPAR (CP-AMPAR) = test: Ca2+ imaging of hippocampal brain slices, AMPA+CTZ application (CP-AMPA reaction), HFD-fed mice; assay type: cell-based
Description: First, the intracellular calcium concentration ([Ca^2+]i) was directly measured in an acute brain slice of the hippocampus having a perihippocampal region using a mouse obesity model associated with HFD feeding (composition of diet (7) shown in Table 1) for 12 weeks after weaning to track calcium signaling (FIG. 1A: supplementary data moving image 1) in the hippocampus. HFD-fed mice received […] containing 100 μM CTZ (cyclothiazide; […]) applied to EC (entorhinal cortex), CA1 (cornu ammonis 1), CA2, CA3, and DG (dentate gyrus). The F525 normalized before and after application was compared.

NMDAR [2] = test: Ca2+ imaging of hippocampal brain slices, NMDA+glycine application, ob/ob mice; settings: ob/ob mice orally administered PER; leptin 100 nM
NMDAR [3] = test: Ca2+ imaging of hippocampal brain slices, NMDA+glycine application (NMDA reaction), HFD-fed mice; assay type: cell-based, mouse; settings: HFD mice orally administered PER; leptin 100 nM

CC(=O)OCOC(=O)CN(CC(=O)OCOC(C)=O)c1ccccc1OCCOc1ccccc1N(CC(=O)OCOC(C)=O)CC(=O)OCOC(C)=O [BAPTA-AM]
inactivation of the NMDA receptor (reactivity to NMDA 50 μM and glycine 10 μM) (NMDA receptor): released the inactivation of the NMDA receptor

CC(=O)OCOC(=O)CN(CC(=O)OCOC(C)=O)c1ccc(C)cc1OCCOc1cc(-c2c3cc(Cl)c(=O)cc-3oc3cc(OCOC(C)=O)c(Cl)cc23)ccc1N(CC(=O)OCOC(C)=O)CC(=O)OCOC(C)=O [Fluo-3 AM]
Kd [1]: 400 nM

Cc1cn2c(n1)Cc1ccc(Cl)cc1C(c1ccc(N)cc1)=N2 [GYKI 47261]
inhibitory effect on CP-AMPAR in EC, CA1, CA2, CA3, DG (CP-AMPAR; ob/ob mice slices, 100 μM, p<0.05 (FIG. 10-1A)): significant inhibitory effect

NCCCNCCCCNCCCNC(=O)Cc1cccc2ccccc12 [NASPM, N-[3-[[4-[(3-aminopropyl)amino]butyl]amino]propyl]-1-naphthaleneacetamide]
inhibitory effect on CP-AMPAR in EC, CA1, CA2, CA3, DG (CP-AMPAR): significant inhibitory effect | increase in [Ca2+]i via pathological AMPAR (AMPAR (CP-AMPAR)): disappeared

leptin: hormone that regulates energy expenditure
function of NMDAR in EC, CA1, CA2, CA3, DG (NMDAR [2]): significantly enhanced | function of NMDAR in EC, CA1, CA2, CA3, DG (NMDAR [3]): significantly enhanced
